Laboratory results published in patent US8927246B2, “Method to increase the production of extracellular polymeric substances (EPS) in a Acidithiobacillus ferrooxidans culture by the inhibition of enzymes of tricarboxilic acid cycle” (Universidad de Chile, priority 2010, dated 2015).

Experiments:
Aconitase (EC 4.2.1.3) = details: cited from earlier work
[1] = test system: Acidithiobacillus ferrooxidans strain Wenelen; test: Batch culture of A. ferrooxidans Wenelen with FIC versus control: biomass and EPS production; assay type: cell-based; details: for [EPS] ajusted: fitted curve
Description: To compare biomass and EPS production in a Acidithiobacillus ferrooxidans, a culture with FIC and a control one, without FIC, were conducted.
Both cultures were carried in 1 L of a 9K medium described in Table 2, with the addition of 30 g/L of ferrous sulfate, with pH set at 1.8, agitation of 250 rpm and air flux of 1 VVM.
In both cultures, the same initial biomass concentration of 1*10^7 cell/mL was inoculated. In sample 1, 80 μM of FIC was added. Cultures were kept for 288 hours and EPS and biomass concentration was periodically measured. Afterwards, specific productivity of EPS was calculated.

[2] = 80 μM FIC, from hours 48 to 120

Substance: fluoroisocitrate [FIC]
- inhibition of aconitase (Aconitase (EC 4.2.1.3)): specifically inhibited
- amount of EPS per cell (pg EPS/cell) relative to control ([1]; 80 μM FIC, 192 hours): 18 times
- EPS yield (pg EPS/cell) relative to control sample ([1]; 80 μM FIC, at 120 hours of culture): 2 times
- biomass relative to control sample ([1]; 80 μM FIC, between 120 and 288 hours): lower by one magnitude order
- difference in growth rate or EPS production versus control sample ([1]; 80 μM FIC, first 48 hours): no significant differences
- EPS production [1, 2]: strong increase
- biomass [1, 2]: remains practically constant
- EPS ([1]; 80 μM FIC, time 0.0001 hours): 28 mg/L
- cel/ml (biomass concentration) ([1]; 80 μM FIC, time 0.0001 hours): 4.69E+06 cel/ml
- pg EPS/cel ([1]; 80 μM FIC, time 0.0001 hours): 5.97 pg EPS/cel
- [EPS] ajusted ([1]; 80 μM FIC, time 0.0001 hours): 28.00 mg/L
- EPS ([1]; 80 μM FIC, time 24 hours): 33.5 mg/L
- cel/ml (biomass concentration) ([1]; 80 μM FIC, time 24 hours): 7.81E+06 cel/ml
- pg EPS/cel ([1]; 80 μM FIC, time 24 hours): 4.29 pg EPS/cel
- [EPS] ajusted ([1]; 80 μM FIC, time 24 hours): 36.49 mg/L
- EPS ([1]; 80 μM FIC, time 48 hours): 74 mg/L
- cel/ml (biomass concentration) ([1]; 80 μM FIC, time 48 hours): 6.66E+07 cel/ml
- pg EPS/cel ([1]; 80 μM FIC, time 48 hours): 1.11 pg EPS/cel
- [EPS] ajusted ([1]; 80 μM FIC, time 48 hours): 109.28 mg/L
- EPS ([1]; 80 μM FIC, time 120 hours): 341 mg/L
- cel/ml (biomass concentration) ([1]; 80 μM FIC, time 120 hours): 7.69E+07 cel/ml
- pg EPS/cel ([1]; 80 μM FIC, time 120 hours): 4.44 pg EPS/cel
- [EPS] ajusted ([1]; 80 μM FIC, time 120 hours): 306.36 mg/L
- EPS ([1]; 80 μM FIC, time 144 hours): 350 mg/L
- cel/ml (biomass concentration) ([1]; 80 μM FIC, time 144 hours): 4.16E+07 cel/ml
- pg EPS/cel ([1]; 80 μM FIC, time 144 hours): 8.42 pg EPS/cel
- [EPS] ajusted ([1]; 80 μM FIC, time 144 hours): 318.74 mg/L
- EPS ([1]; 80 μM FIC, time 168 hours): 372.5 mg/L
- cel/ml (biomass concentration) ([1]; 80 μM FIC, time 168 hours): 3.41E+07 cel/ml
- pg EPS/cel ([1]; 80 μM FIC, time 168 hours): 10.94 pg EPS/cel
- [EPS] ajusted ([1]; 80 μM FIC, time 168 hours): 324.73 mg/L
- EPS ([1]; 80 μM FIC, time 192 hours): 348.5 mg/L
- cel/ml (biomass concentration) ([1]; 80 μM FIC, time 192 hours): 1.41E+07 cel/ml
- pg EPS/cel ([1]; 80 μM FIC, time 192 hours): 24.78 pg EPS/cel
- [EPS] ajusted ([1]; 80 μM FIC, time 192 hours): 327.88 mg/L
- EPS ([1]; 80 μM FIC, time 216 hours): 315 mg/L
- cel/ml (biomass concentration) ([1]; 80 μM FIC, time 216 hours): 1.38E+07 cel/ml
- pg EPS/cel ([1]; 80 μM FIC, time 216 hours): 22.91 pg EPS/cel
- [EPS] ajusted ([1]; 80 μM FIC, time 216 hours): 329.65 mg/L
- EPS ([1]; 80 μM FIC, time 288 hours): 305 mg/L
- cel/ml (biomass concentration) ([1]; 80 μM FIC, time 288 hours): 1.94E+07 cel/ml
- pg EPS/cel ([1]; 80 μM FIC, time 288 hours): 15.74 pg EPS/cel
- [EPS] ajusted ([1]; 80 μM FIC, time 288 hours): 331.83 mg/L
- effect on EPS and biomass production in culture ([1]; A. ferroxidans culture): enhanced EPS production in detriment of biomass production
- EPS specific productivity versus control ([1]; FIC cultures, after the first 30 hours): significant increase
- increase in EPS specific productivity versus control ([1]; FIC cultures, around the 50 hours of culture, exponential growth phase): ~30%
